Measurements from US11753433B2, “Methods of synthesizing substituted purine compounds” (Epizyme, Inc., priority 2013, dated 2023).

What was measured:
Type in all cases: physicochemical
[1] = Solubility in Simulated Gastric Fluid (SGF) at 37° C.; details: for Resulting Solid: XRPD
Protocol: To study if Form A and Form B would perform differently in stomach, the solubilities of Form A and Form B were measured in Simulated Gastric Fluid (SGF, see below for SGF preparation) at 37° C. […] The remaining solids after each time point were subject to XRPD analysis. […] Weigh appropriate amount of hydrochloride (HCl) and sodium chloride (NaCl) into a 1-L flask followed by addition of 1-L deionized water. The mixture was stirred until all solids are dissolved. Check pH value with a pH-meter and adjust the pH to 1.8 with HCl (1N) or NaOH (1N).

[2] = Dynamic vapor sorption (DVS) hygroscopicity; details: between 0% and 95% RH, 25° C.
Protocol: (peak temperature) which is accompanied by 5.9 wt % weight loss up to ˜150° C. in the TGA curve (FIG. 3). […] A solid is considered moderately hygroscopic when water uptake at 25° C./80% RH is between 2-15 wt % based on criteria of European Pharmacopeia. […] Form B of EP-1 trihydrate (x is 3) is a trihydrate as confirmed by single crystal analysis. The experimental XRPD pattern of Form B matches well with the simulated one from single crystal data (FIG. 6). This was also confirmed by DSC and TGA data (FIG. 7 and FIG. 8, respectively). DSC data indicates Form B dehydrates at ˜132° C. […] Form B is slightly hygroscopic as evidenced by a weight change of ˜0.3% between 0% and 95% RH (FIG. 9), (data collection was programmed from 95% RH-0% RH-95% RH at a step size of 10% RH at 25° C.).

[3] = Solution stability
Protocol: 0.1 mg/ml solutions of Form B were prepared in five buffers, including 0.01N HCl (pH 2), 50 mM sodium citrate (pH 4), 50 mM sodium citrate (pH 6), 50 mM sodium phosphate (pH 8), and 50 mM sodium carbonate (pH 10). Methanol was added as a co-solvent to dissolve Form B in buffers (i.e., 10% (v/v) in pH 2, 4, and 6 buffers, 20% (v/v) in pH 8 buffer, and 30% (v/v) in pH 10 buffer). Each buffer solution containing Form B was stored at 3 different temperatures: 25° C., 37° C., and 50° C. Aliquots were taken for HPLC analysis after 1 day and 7 days. pH values were also measured before and after the stability experiments.

[4] = Solid-state photostability
Protocol: The solid-state photostability of EP-1 trihydrate (x is 3) was assessed upon exposure to UV/Vis light according to ICH guidelines. Loss of claim %, loss of area %, and degradates were evaluated versus dark control samples.
Solid-State Photostability: Weighed ˜5 mg Form B into glass vials with 2 vials covered with foil as the controls. Put these 2 samples with their controls into chamber and expose them to Vis (10 Kilo lux) for 120 hrs followed by UV (10 W/m^2) for 20 hrs (per ICH guidelines). At the end of Vis, take 1 sample and 1 control out for analysis and the others were taken out after both Vis and UV exposure.

[5] = Bulk control (covered with foil), Vis Stability (1.2 Mil lux-hours)
[6] = Bulk control (covered with foil), Vis-UV stability (1.2 Mil lux-hours + 200 Watt-hours/m^2)
[7] = Bulk, Vis Stability (1.2 Mil lux-hours)
[8] = Bulk, Vis-UV stability (1.2 Mil lux-hours + 200 Watt-hours/m^2)

In the case of CC(C)N(C[C@H]1O[C@@H](n2cnc3c(N)ncnc32)[C@H](O)[C@@H]1O)[C@H]1C[C@@H](CCc2nc3cc(C(C)(C)C)ccc3[nH]2)C1 [Form B, (2R,3R,4S,5R)-2-(6-amino-9H-purin-9-yl)-5-((((1r,3S)-3-(2-(5-(tert-butyl)-1H-benzo[d]imidazol-2-yl)ethyl)cyclobutyl)(isopropyl)amino)methyl)tetrahydrofuran-3,4-diol trihydrate], the “Final pH” value [1] is reported as 5.3, the “Resulting Solid” value ([1]; 15 min) is reported as “Type B” and the “Resulting Solid” value ([1]; 30 min) is reported as “Type B”. For the same compound, the “Resulting Solid” value ([1]; 60 min) was “Type B”, the solubility at 15 min ([1]; Simulated Gastric Fluid (SGF), pH 1.8, simulated gastric fluid, thermodynamic from solid, 15 min, calculated using free base content) was 5400 µg/mL and the solubility at 30 min ([1]; Simulated Gastric Fluid (SGF), pH 1.8, simulated gastric fluid, thermodynamic from solid, 30 min, calculated using free base content) was 5400 µg/mL. For the same compound, the solubility at 60 min ([1]; Simulated Gastric Fluid (SGF), pH 1.8, simulated gastric fluid, thermodynamic from solid, 60 min, calculated using free base content) was 5600 µg/mL, the “weight change (DVS)” value [2] was about 0.3% and the “% area” value ([3]; pH 2, 25° C., 24 h) was 98.7%. For the same compound, the “% claim” value ([3]; pH 2, 25° C., 24 h) was 97.1%, the pH ([3]; pH 2, 25° C., 24 h) was 2.1 and the “% area” value ([3]; pH 2, 25° C., 7 days) was 98.5%. The “% claim” value ([3]; pH 2, 25° C., 7 days) was 99.1%, the pH ([3]; pH 2, 25° C., 7 days) was 2.1 and the “% area” value ([3]; pH 2, 37° C., 24 h) was 98.7%. The “% claim” value ([3]; pH 2, 37° C., 24 h) was 96.8%, the pH ([3]; pH 2, 37° C., 24 h) was 2.1 and the “% area” value ([3]; pH 2, 37° C., 7 days) was 98.4%. For the same compound, the “% claim” value ([3]; pH 2, 37° C., 7 days) was 97.5%, the pH ([3]; pH 2, 37° C., 7 days) was 2.1 and the “% area” value ([3]; pH 2, 50° C., 24 h) was 98.3%. The “% claim” value ([3]; pH 2, 50° C., 24 h) was 97.0%, the pH ([3]; pH 2, 50° C., 24 h) was 2.1 and the “% area” value ([3]; pH 2, 50° C., 7 days) was 98.4%. The “% claim” value ([3]; pH 2, 50° C., 7 days) was 97.0%, the pH ([3]; pH 2, 50° C., 7 days) was 2.1 and the degradation in solution ([3]; pH 2-10 buffers, 25-50° C., up to 7 days) was “less than 5%”. For the same compound, the “% area” value ([3]; pH 4, 25° C., 24 h) was 99.4%, the “% claim” value ([3]; pH 4, 25° C., 24 h) was 97.4% and the pH ([3]; pH 4, 25° C., 24 h) was 4.2. The “% area” value ([3]; pH 4, 25° C., 7 days) was 99.6%, the “% claim” value ([3]; pH 4, 25° C., 7 days) was 100.2% and the pH ([3]; pH 4, 25° C., 7 days) was 4.2. The “% area” value ([3]; pH 4, 37° C., 24 h) was 99.4%, the “% claim” value ([3]; pH 4, 37° C., 24 h) was 97.6% and the pH ([3]; pH 4, 37° C., 24 h) was 4.1. The “% area” value ([3]; pH 4, 37° C., 7 days) was 99.5%, the “% claim” value ([3]; pH 4, 37° C., 7 days) was 99.0% and the pH ([3]; pH 4, 37° C., 7 days) was 4.1. For the same compound, the “% area” value ([3]; pH 4, 50° C., 24 h) was 99.4%, the “% claim” value ([3]; pH 4, 50° C., 24 h) was 97.6% and the pH ([3]; pH 4, 50° C., 24 h) was 4.1. For the same compound, the “% area” value ([3]; pH 4, 50° C., 7 days) was 99.5%, the “% claim” value ([3]; pH 4, 50° C., 7 days) was 98.7% and the pH ([3]; pH 4, 50° C., 7 days) was 4.2. For the same compound, the “% area” value ([3]; pH 6, 25° C., 24 h) was 99.2%, the “% claim” value ([3]; pH 6, 25° C., 24 h) was 98.0% and the pH ([3]; pH 6, 25° C., 24 h) was 6.2. The “% area” value ([3]; pH 6, 25° C., 7 days) was 99.5%, the “% claim” value ([3]; pH 6, 25° C., 7 days) was 100.0% and the pH ([3]; pH 6, 25° C., 7 days) was 6.2. For the same compound, the “% area” value ([3]; pH 6, 37° C., 24 h) was 99.3%, the “% claim” value ([3]; pH 6, 37° C., 24 h) was 97.9% and the pH ([3]; pH 6, 37° C., 24 h) was 6.2. The “% area” value ([3]; pH 6, 37° C., 7 days) was 99.4%, the “% claim” value ([3]; pH 6, 37° C., 7 days) was 99.0% and the pH ([3]; pH 6, 37° C., 7 days) was 6.3. The “% area” value ([3]; pH 6, 50° C., 24 h) was 99.3%, the “% claim” value ([3]; pH 6, 50° C., 24 h) was 98.1% and the pH ([3]; pH 6, 50° C., 24 h) was 6.2. For the same compound, the “% area” value ([3]; pH 6, 50° C., 7 days) was 99.5%, the “% claim” value ([3]; pH 6, 50° C., 7 days) was 98.9% and the pH ([3]; pH 6, 50° C., 7 days) was 6.2. For the same compound, the “% area” value ([3]; pH 8, 25° C., 24 h) was 99.2%, the “% claim” value ([3]; pH 8, 25° C., 24 h) was 98.0% and the pH ([3]; pH 8, 25° C., 24 h) was 8.2. For the same compound, the “% area” value ([3]; pH 8, 25° C., 7 days) was 99.5%, the “% claim” value ([3]; pH 8, 25° C., 7 days) was 99.8% and the pH ([3]; pH 8, 25° C., 7 days) was 8.2. The “% area” value ([3]; pH 8, 37° C., 24 h) was 99.5%, the “% claim” value ([3]; pH 8, 37° C., 24 h) was 98.4% and the pH ([3]; pH 8, 37° C., 24 h) was 8.2. For the same compound, the “% area” value ([3]; pH 8, 37° C., 7 days) was 99.5%, the “% claim” value ([3]; pH 8, 37° C., 7 days) was 99.3% and the pH ([3]; pH 8, 37° C., 7 days) was 8.3. For the same compound, the “% area” value ([3]; pH 8, 50° C., 24 h) was 99.5%, the “% claim” value ([3]; pH 8, 50° C., 24 h) was 98.0% and the pH ([3]; pH 8, 50° C., 24 h) was 8.3. For the same compound, the “% area” value ([3]; pH 8, 50° C., 7 days) was 99.5%, the “% claim” value ([3]; pH 8, 50° C., 7 days) was 98.8% and the pH ([3]; pH 8, 50° C., 7 days) was 8.3. For the same compound, the “% area” value ([3]; pH 10, 25° C., 24 h) was 99.4%, the “% claim” value ([3]; pH 10, 25° C., 24 h) was 98.0% and the pH ([3]; pH 10, 25° C., 24 h) was 10.9. The “% area” value ([3]; pH 10, 25° C., 7 days) was 99.4%, the “% claim” value ([3]; pH 10, 25° C., 7 days) was 99.7% and the pH ([3]; pH 10, 25° C., 7 days) was 10.9. For the same compound, the “% area” value ([3]; pH 10, 37° C., 24 h) was 99.4%, the “% claim” value ([3]; pH 10, 37° C., 24 h) was 98.2% and the pH ([3]; pH 10, 37° C., 24 h) was 10.9. The “% area” value ([3]; pH 10, 37° C., 7 days) was 99.4%, the “% claim” value ([3]; pH 10, 37° C., 7 days) was 99.0% and the pH ([3]; pH 10, 37° C., 7 days) was 10.9. For the same compound, the “% area” value ([3]; pH 10, 50° C., 24 h) was 99.5%, the “% claim” value ([3]; pH 10, 50° C., 24 h) was 97.9% and the pH ([3]; pH 10, 50° C., 24 h) was 11.0. For the same compound, the “% area” value ([3]; pH 10, 50° C., 7 days) was 99.4%, the “% claim” value ([3]; pH 10, 50° C., 7 days) was 98.9% and the pH ([3]; pH 10, 50° C., 7 days) was 10.9. For the same compound, the “% area” value [4, 5] was 99.7%, the “% claim” value [4, 5] was 100.0% and the “% area” value [4, 6] was 99.8%. The “% claim” value [4, 6] was 100.0%, the “% area” value [4, 7] was 99.8% and the “% claim” value [4, 7] was 101.1%. The “% area” value [4, 8] was 99.8%, the “% claim” value [4, 8] was 99.6% and the “solid-state photostability (in words)” value ([4]; bulk, full ICH photostability exposure) was “stable upon exposure to full ICH photostability requirement”.
